Counter-ions that a name gives are not always drawn. Like-named read-outs stand apart in the source and are kept apart here.
Legend:
[1] = Rat blood-brain barrier evaluation; assay type: in vivo; conditions: SD rats, intragastric 10 mg/kg; for concentrations in brain tissues (in words): over time
Description: (1) Animal Administration and Sampling Method:
The study compound A1, the compound A41 and PXS-4728 were dissolved in normal saline to prepare solutions. The prepared solutions were separately administered by intragastric administration to SD rats at a dose of 10 mg/kg. […] At each time point, samples were collected from three SD rats.
On the day of the study, the animals were fixed to collect 0.15 mL of blood from the jugular vein at each set time point, and the whole blood samples were put into anticoagulation tubes containing EDTA-K2. After blood sampling was completed, heart perfusion was immediately performed for the animals, and following the heart perfusion, brain tissue samples were collected.
After the whole blood samples were centrifuged under the condition of 1,524 g for 10 min, top plasma samples were collected into sample tubes. The tissue samples were weighed, added with 20% of aqueous methanol solution at a weight-to-volume ratio of 1:5 (tissue:homogenate) and homogenized. The biological samples were stored at −40° C. to −20° C. for analysis.
(4) Sample Analysis Method:
(§1) Plasma sample: The samples to be tested were taken out of the refrigerator, naturally thawed at room temperature and then swirled for 5 min, and 20 μL of plasma sample was accurately pipetted into 1.5 mL centrifuge tubes. 100 μL of internal standard working solution (solution of 5 ng/mL verapamil and 50 ng/mL glibenclamide in acetonitrile) was added, and uniform mixing was performed. After 1 min of swirling, centrifugation was performed at 13,000 rpm for 8 min. 40 μL of supernate was accurately pipetted into a 96-well plate added with 160 μL water/well in advance. Uniform mixing was performed by swirling for 10 min, followed by LC-MS/MS assay.
as §1, with “Brain tissue” for “Plasma”, “50” for “20”, “250” for “100”, “30” for “40”, “150” for “160”
(5) Data Processing Method:
Analyst 1.6.2 from AB Sciex was used to output concentration results of tested compounds. Microsoft Excel was used to calculate parameters such as mean value, standard deviation and variation coefficient (excluding those outputted directly by Analyst 1.6.2).

rhAOC1 = target: T1, rhAOC1 (Homo sapiens, UniProt P19801); test: Selectivity against rhAOC1 enzyme (Biological Example 1); assay type: biochemical; conditions: Table 1; histamine substrate, Amplex Red/HRP
T1 construct: purchased R&D
T1 sequence (P19801 20-751): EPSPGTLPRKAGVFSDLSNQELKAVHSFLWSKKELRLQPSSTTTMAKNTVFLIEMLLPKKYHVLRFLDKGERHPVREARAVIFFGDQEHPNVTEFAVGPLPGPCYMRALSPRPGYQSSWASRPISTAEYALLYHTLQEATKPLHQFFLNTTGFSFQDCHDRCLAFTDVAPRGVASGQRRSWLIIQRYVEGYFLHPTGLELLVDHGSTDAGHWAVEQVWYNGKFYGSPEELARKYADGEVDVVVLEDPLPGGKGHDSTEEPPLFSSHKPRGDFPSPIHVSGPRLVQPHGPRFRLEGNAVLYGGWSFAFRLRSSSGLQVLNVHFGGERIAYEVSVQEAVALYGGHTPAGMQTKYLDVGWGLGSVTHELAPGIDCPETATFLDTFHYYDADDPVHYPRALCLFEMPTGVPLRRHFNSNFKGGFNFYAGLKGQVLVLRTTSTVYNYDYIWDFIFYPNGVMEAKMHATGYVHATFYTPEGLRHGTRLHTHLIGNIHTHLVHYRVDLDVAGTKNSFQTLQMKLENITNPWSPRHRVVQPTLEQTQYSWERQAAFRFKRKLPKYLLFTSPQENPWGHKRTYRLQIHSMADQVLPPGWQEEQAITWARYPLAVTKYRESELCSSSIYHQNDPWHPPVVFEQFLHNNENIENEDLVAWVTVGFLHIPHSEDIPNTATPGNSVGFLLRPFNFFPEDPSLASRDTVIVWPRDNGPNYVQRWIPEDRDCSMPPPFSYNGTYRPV
Description: 2. Selectivity of Compounds Against rhAOC1 Enzyme
(1) Instrument, Consumable and Reagent
Microplate reader (Perkin Elmer, Nivo 5S), black unclear-bottom 96-well plate (Corning) and rhAOC1 (R&D)
(2) Preparation of Concentration Gradient Compound Solutions
An appropriate amount of the compound to be tested was taken, dissolved in DMSO to 10 mM and then stored. Before the study, an appropriate amount of mother liquor of the 10 mM compound to be tested was taken and gradiently diluted 3-fold with DMSO, 10 concentration gradients in total. Each concentration gradient was then diluted 10-fold with 0.1 M of PBS.
(3) Preparation of Enzyme Solutions
An appropriate amount of rhAOC1 mother liquor with a concentration of 0.441 mg/mL was taken and diluted with an appropriate amount of 50 mM HEPES buffer solution to obtain enzyme solutions of 4× concentrations.
(4) Preparation of Substrate Mixtures of 2× Concentrations
An appropriate amount of histamine was weighed and dissolved with 50 mM of HEPES buffer solution to obtain 20 mM of histamine solution. The histamine solution was added with 2 mM of Amplex Red mother liquor and 500 U/mL of HRP mother liquor and diluted with 50 mM of HEPES buffer solution to obtain substrate mixtures of 2× concentrations.
10 μL compound solutions of different concentrations, 25 μL rhAOC1 enzyme solutions of 4× concentrations and 15 μL of 50 mM HEPES buffer solution were first added into a 96-well plate, shaken to be mixed uniformly and then incubated at 37° C. for 30 min. 50 μL substrate mixtures of 2× concentrations were then added into each well, and the microplate reader was immediately used to detect fluorescence intensity of each well with 580 nm (20 nm) exciting light and 620 nm (10 nm) emission light for 5 min each time, 30 min in total. […]
V: fluorescence change rate; Ft: fluorescence reading at time point t; F0: initial fluorescence reading; Time: duration t; Vcmpd: fluorescence change rate of tested compound; Vmax: Max hole fluorescence change rate. […]

[2] = rat, plasma, oral, 0.167 h, read-out: Average Plasma concentration (N=3)
[3] = rat, plasma, oral, 1 h, read-out: Average Plasma concentration (N=3)
[4] = rat, plasma, oral, 6 h, read-out: Average Plasma concentration (N=3)

Row | Average Brain tissue concentration (N=3) ([1]; 0.167 h) | Mean brain tissue/plasma concentration ratio ([1]; 0.167 h) | concentrations in brain tissues (in words) [1] | concentration at 1 h ([1]; rat, brain, oral, 1 h, read-out: Average Brain tissue concentration (N=3)) [ng/g] | concentration at 6 h ([1]; rat, brain, oral, 6 h, read-out: Average Brain tissue concentration (N=3)) [ng/g] | Kp at 1 h ([1]; rat, brain/plasma, oral, 1 h, read-out: Mean brain tissue/plasma concentration ratio) | Kp at 6 h ([1]; rat, brain/plasma, oral, 6 h, read-out: Mean brain tissue/plasma concentration ratio) | concentration at 0.167 h [1, 2] [ng/mL] | concentration at 1 h [1, 3] [ng/mL] | concentration at 6 h [1, 4] [ng/mL] | IC50 (rhAOC1) [µM] | Average Brain tissue concentration (N=3) ([1]; 1 h) | Average Brain tissue concentration (N=3) ([1]; 6 h) | SMILES
1 | BLOQ | 0← | below the limit of detection | 39.1 | 31.3 | 0.03 | 0.39 | 158 | 1300 | 80.7 | 22.1 |  |  | NC/C(=C\F)Cn1cc2c(n1)CCN(C1CC1)C2=O [Compound A1, (E)-2-(2-(aminomethyl)-3-fluoroallyl)-5-cyclopropyl-2,5,6,7-tetrahydro-4H-pyrazolo[4,3-c]pyridin-4-one]
2 |  |  |  |  |  |  |  |  |  |  | > 10 |  |  | NC/C(=C\F)Cn1ncc2c1CCN(C1CC1)C2=O [Compound A2 hydrochloride, (E)-1-(2-(aminomethyl)-3-fluoroallyl)-5-cyclopropyl-1,5,6,7-tetrahydro-4H-pyrazolo[4,3-c]pyridin-4-one]
3 | BLOQ |  | below the limit of detection |  |  |  |  | 624 | 1750 | 39.7 |  | BLOQ | BLOQ | NC/C(=C\F)Cn1cc2c(=O)n(C3CC3)ccc2n1 [Compound A41, (E)-2-(2-(aminomethyl)-3-fluoroallyl)-5-cyclopropyl-2,5-dihydro-4H-pyrazolo[4,3-c]pyridin-4-one]

From US12371432B2, “Haloallylamine compounds and application thereof” (TransThera Sciences (Nanjing), Inc., priority 2019, dated 2025)
